Values quoted from earlier work in patent US10251905B2, “Tissue maintenance” (Hibernation Therapeutics, A KF LLC, priority 2006, dated 2019).

Tests used:
human NK(1) receptor = human NK(1) receptor (Homo sapiens, UniProt P25103)
NK(2) receptor = molecular target: T1, NK(2) receptor (Homo sapiens, UniProt P21452); settings: relative to NK(1)
T1 sequence (P21452 1-398): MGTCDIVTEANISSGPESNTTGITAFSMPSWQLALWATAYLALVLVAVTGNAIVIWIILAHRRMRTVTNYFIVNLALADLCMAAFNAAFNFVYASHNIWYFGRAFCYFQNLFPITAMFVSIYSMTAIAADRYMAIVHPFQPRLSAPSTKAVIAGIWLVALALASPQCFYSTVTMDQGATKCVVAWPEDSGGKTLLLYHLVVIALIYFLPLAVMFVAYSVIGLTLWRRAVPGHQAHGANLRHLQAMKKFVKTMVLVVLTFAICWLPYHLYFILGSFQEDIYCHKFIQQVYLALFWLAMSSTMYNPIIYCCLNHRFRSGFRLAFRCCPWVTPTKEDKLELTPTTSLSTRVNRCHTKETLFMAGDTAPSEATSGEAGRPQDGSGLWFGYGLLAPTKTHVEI

NK(3) receptor = molecular target: T2, NK(3) receptor (Homo sapiens, UniProt P29371); settings: relative to NK(1)
T2 sequence (P29371 1-465): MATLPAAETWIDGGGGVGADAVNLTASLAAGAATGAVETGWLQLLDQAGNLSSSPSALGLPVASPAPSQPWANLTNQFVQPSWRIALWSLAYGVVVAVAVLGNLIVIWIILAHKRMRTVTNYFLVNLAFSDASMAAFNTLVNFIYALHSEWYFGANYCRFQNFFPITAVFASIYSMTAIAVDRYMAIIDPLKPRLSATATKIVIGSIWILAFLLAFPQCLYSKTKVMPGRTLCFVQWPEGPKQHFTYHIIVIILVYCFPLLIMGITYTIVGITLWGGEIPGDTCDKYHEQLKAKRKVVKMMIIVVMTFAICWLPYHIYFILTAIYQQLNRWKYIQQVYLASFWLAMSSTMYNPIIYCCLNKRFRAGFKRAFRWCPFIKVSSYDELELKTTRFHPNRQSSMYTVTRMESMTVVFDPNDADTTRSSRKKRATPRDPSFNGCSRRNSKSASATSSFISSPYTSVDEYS

human NK(1) receptor, sequence (P25103 whole entry): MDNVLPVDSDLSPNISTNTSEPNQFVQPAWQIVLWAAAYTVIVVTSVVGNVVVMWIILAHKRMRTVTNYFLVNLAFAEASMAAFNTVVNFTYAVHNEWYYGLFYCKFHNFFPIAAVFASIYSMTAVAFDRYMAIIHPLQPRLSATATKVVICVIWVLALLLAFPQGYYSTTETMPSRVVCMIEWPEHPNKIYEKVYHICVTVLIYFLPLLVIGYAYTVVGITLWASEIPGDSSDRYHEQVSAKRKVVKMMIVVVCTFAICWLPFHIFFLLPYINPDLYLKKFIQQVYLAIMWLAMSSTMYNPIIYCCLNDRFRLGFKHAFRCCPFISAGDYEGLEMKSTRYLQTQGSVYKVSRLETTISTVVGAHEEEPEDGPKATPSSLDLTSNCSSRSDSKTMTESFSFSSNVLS

Ki (human NK(1) receptor) [nM]	selectivity toward NK(2) receptors (NK(2) receptor)	selectivity toward NK(3) receptors (NK(3) receptor)	half life in the blood	Compound
0.45	over 200 fold	over 200 fold		Cc1cccc(C)c1NC(=O)C[C@H]1CCN(C(=O)c2cc(C(F)(F)F)cc(C(F)(F)F)c2)[C@@H](Cc2ccccc2)C1.O=C(O)C[C@H](O)C(=O)O (relative stereo) [R116301, (2R-trans)-4-[1-[3,5-bis(trifluoromethyl)benzoyl]-2-(phenylmethyl)-4-piperidinyl]-N-(2,6-dimethylphenyl)-1-acetamide (S)-Hydroxybutanedioate]
			about 10 seconds	Nc1ncnc2c1ncn2[C@@H]1O[C@H](CO)[C@@H](O)[C@H]1O [adenosine]
